According to US5475015A, “Benzimidazole derivatives, their preparation and pharmaceutical use” (NeuroSearch A/S, priority 1993, dated 1995):

Key:
[1] = test system: cocaine induced hypermotility; experiment: Cocaine motility test; format: in vivo, NMRI mice
Procedure: The compound, 5-trifluoromethyl-1-(5-trifluoromethyl-2-hydroxyphenyl)-1,3-dihydro-2H-benzimidazole-2-one, has been studied in the cocaine motility test. Cocaine induces hypermotility due to an inhibition of dopamine reuptake. The test is recognized as a test predicting anti-psychotic activity.
Method: Two female NMRI mice (20-25 g) are placed in each test box (normal transparent plexiglas cage, w, l, h=21×39×19 cm ) in the test room for at least 16 hours with food and water ad libitum before the test in order for the animals to habituate to the situation. The test compound is administered i.p. 15 min before saline or 25 mg/kg cocaine i.p. to 32 mice (16 boxes) per dose. Food and water are withdrawn, and the motility is measured as the number of interrupted infrared photo-beams (8 per box placed 5 cm apart and 3 cm over the bottom of the cage) in the next 120 min.

[2] = test system: calf aortic smooth muscle cells; experiment: Whole-cell current clamp recording of membrane potential; format: cell-based; details: 10 μM to the bath
Procedure: (§1) All experiments were performed with patch-clamp technique (Hamill et al., Pflugers Arch. 391, 85-100 (1981)). The ion composition of the internal solution was (in mM) 140 KCl, 1 CaCl2, 1 MgCl2, 2 EGTA, 10 HEPES and the external solution contained 140 NaCl, 4 KCl, 2 CaCl2, 1 MgCl2 and 10 HEPES.
The membrane potential of calf aortic smooth muscle cells was determined in whole-cell recordings using current clamp mode (HEKA EPC-9 patch-clamp amplifier). Due to the high-resistance seal and the large size of these cells the recorded membrane potential stayed stable for periods of 30-60 min, although at somewhat depolarized values (-58--22 mV). Administration of for example 1-(5-trifluoromethyl-2-hydroxyphenyl)-5-trifluoromethyl-1,3-dihydro-2H-benzimidazol-2-one (10 μM) to the bath hyperpolarized the cells after a delay of 1-3 min. The average hyperpolarization was -20 mV (SD=-9 mV, n=7), and the effect was largest in the cells being most depolarized prior to administration of the compound.
The equilibrium potential for K+, Cl-, and Na+ in these experiments were -90 mV, 0 mV, and +90 mV, respectively (cf. ion composition above). Thus, since potassium is the only ion having a reversal potential more negative than the resting membrane potential the observed hyperpolarization induced by the test compound must be explained through an increased potassium conductance.

[3] = test system: delayed rectifier K+ channel; experiment: Single channel experiments, inside-out patches of cerebellar granule cell membrane: delayed rectifier; format: cell-based; details: 3 μM
Procedure: as §1
(§2) In inside-out patches of cerebellar granule cell membrane single BK channels were activated by for example 5-trifluoromethyl1-(5-trifluoromethyl-2-hydroxyphenyl)-1,3-dihydro-2H-benzimidazole-2-one (3 μM). […] No effect was found on the delayed rectifier K+ channel or on the Cl- channels also present in the patches.

Cl- channels = experiment: Single channel experiments, inside-out patches of cerebellar granule cell membrane: Cl- channels; format: cell-based; details: 3 μM
Procedure: as §1, §2

[4] = test system: acetylcholine-contracted guinea-pig ileum; experiment: Guinea-pig ileum experiment (relaxation of acetylcholine-contracted ileum)
Procedure: The compound, 5-trifluoromethyl-1-(5-trifluoromethyl-2-hydroxyphenyl)-1,3-dihydro-2H-benzimidazole-2-one, has been studied for its ability to relax acetylcholine-contracted guinea-pig ileum. The smooth muscle cells of the ileum express many BK channels and the model predicts relaxing effects on the gastrointestinal or urogenital tracts. […] The effect of 30 μM compound is reversed by the BK channel blocker TEA+ (1-3 mM), confirming that the relaxing effect is mediated via BK channels.
Method: Ileum from guinea-pigs are isolated and mounted in an isometric contraction chamber. It is bathed in a physiological Krebs solution at 98° F. The ileum is precontracted with increasing concentrations of acetylcholine (0.015-5.0 μM). The contractions are reversed by including the compound in the bathing solution.

Guinea pig trachea = experiment: Trachea experiment (vagus nerve stimulated pressure increase)
Excerpt: The compound, 5-trifluoromethyl-1-(5-trifluoromethyl-2-hydroxyphenyl)-1,3-dihydro-2H-benzimidazole-2-one, has been studied in a trachea model in which relaxation predicts anti-asthmatic potential.
Method: Guinea pig trachea is isolated with intact vagus nerve. Tubes are inserted into both ends and ligated tightly so the pressure in the fluid-filled lumen can be monitored. Electrical stimulation of the vagus nerve leads to a contraction and a pressure increase. The difference in electrically-stimulated pressure increase in the absence and presence of compound is measured.

BK channel [5] = experiment: Single channel experiments in cultured bovine aortic smooth muscle cells; format: cell-based; details: 3 μM
Procedure: as §1

BK channel [6] = experiment: Single channel experiments, inside-out patches of cerebellar granule cell membrane; format: cell-based; details: 3 μM
Procedure: as §1

In the case of `O=c1[nH]c2cc(C(F)(F)F)ccc2n1-c1cc(C(F)(F)F)ccc1O` [Example 6, 1-(2-Hydroxy-5-trifluoromethylphenyl)-5-trifluoromethyl-1,3-dihydro-2H-benzimidazol-2-one], the “effect of compound by itself on motility” value ([1]; 30 mg/kg, without cocaine) is reported as “weak hyperactivity”, the “antagonism of cocaine induced hypermotility” value ([1]; 1-10 mg/kg i.p. 15 min before 25 mg/kg cocaine i.p., mice, motility over 120 min) is reported as “antagonizes cocaine induced hypermotility” and the “delay before hyperpolarization of the cells” value [2] is reported as 1 to 3 min. For the same compound, the average hyperpolarization ([2]; current clamp, SD=-9 mV, n=7) was -20 mV, the “effect on the delayed rectifier K+ channel” value [3] was “No effect” and the “effect on the Cl- channels” value (Cl- channels) was “No effect”. For the same compound, the “effect of BK channel blocker TEA+ on the relaxing effect” value ([4]; 30 μM compound, TEA+ 1-3 mM) was “reversed”, the “relaxation of acetylcholine-contracted ileum” value ([4]; 3-30 μM) was “relaxes the ileum in a dose-dependent way” and the “potentiation of the relaxing effect of lemakalim” value (Guinea pig trachea; 10 μM compound) was 10 x. The relaxation of trachea (Guinea pig trachea; 10-100 μM) was “relaxes trachea in a dose-dependent way”, the “activation of the BK channel” value (BK channel [5]) was “significantly activated” and the “increase of the open probability of the BK channel” value (BK channel [6]) was “several hundred percent”.
